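Results reflect a 48-hour exposure of cells in 96-well plates to compound at five concentrations. TGI is the concentration that stops growth completely.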
Assays:
Test in all cases: DTP human tumour cell line panel, 48 h
EKVX NSCLC = system: EKVX NSCLC
SK-MEL-5 melanoma = system: SK-MEL-5 melanoma
HOP-92 NSCLC = system: HOP-92 NSCLC
NCI-H522 lung = system: NCI-H522 lung
SF-539 CNS = system: SF-539 CNS
K-562 leukemia = system: K-562 leukemia
HT29 colon = system: HT29 colon
NCI-H226 lung = system: NCI-H226 lung
M14 melanoma = system: M14 melanoma
MOLT-4 leukemia = system: MOLT-4 leukemia
RXF 393 renal = system: RXF 393 renal
HOP-18 NSCLC = system: HOP-18 NSCLC
COLO 205 colon = system: COLO 205 colon
LXFL 529 NSCLC = system: LXFL 529 NSCLC
CAKI-1 renal = system: CAKI-1 renal
786-0 renal = system: 786-0 renal
SR leukemia = system: SR leukemia
HCT-15 colon = system: HCT-15 colon
SN12C renal = system: SN12C renal
UO-31 renal = system: UO-31 renal
M19-MEL melanoma = system: M19-MEL melanoma
SK-MEL-28 melanoma = system: SK-MEL-28 melanoma
OVCAR-3 ovarian = system: OVCAR-3 ovarian
NCI-H23 lung = system: NCI-H23 lung
XF 498 CNS = system: XF 498 CNS
ACHN renal = system: ACHN renal
HCT-116 colon = system: HCT-116 colon
CCRF-CEM leukemia = system: CCRF-CEM leukemia
OVCAR-8 ovarian = system: OVCAR-8 ovarian
SF-295 CNS = system: SF-295 CNS
SNB-19 CNS = system: SNB-19 CNS
RPMI-8226 leukemia = system: RPMI-8226 leukemia
IGROV1 ovarian = system: IGROV1 ovarian
DMS 114 small cell lung = system: DMS 114 small cell lung
DMS 273 small cell lung = system: DMS 273 small cell lung
SK-MEL-2 melanoma = system: SK-MEL-2 melanoma
SNB-75 CNS = system: SNB-75 CNS
DLD-1 colon = system: DLD-1 colon
NCI-H460 lung = system: NCI-H460 lung
TK-10 renal = system: TK-10 renal
A549 NSCLC = system: A549 NSCLC
HCC-2998 colon = system: HCC-2998 colon
SK-OV-3 ovarian = system: SK-OV-3 ovarian
KM12 colon = system: KM12 colon
HL-60(TB) leukemia = system: HL-60(TB) leukemia
OVCAR-4 ovarian = system: OVCAR-4 ovarian
KM20L2 colon = system: KM20L2 colon
U251 CNS = system: U251 CNS
A498 renal = system: A498 renal
SW-620 colon = system: SW-620 colon
SF-268 CNS = system: SF-268 CNS
MALME-3M melanoma = system: MALME-3M melanoma
MDA-MB-231 breast = system: MDA-MB-231 breast
UACC-62 melanoma = system: UACC-62 melanoma
T-47D breast = system: T-47D breast
LOX IMVI melanoma = system: LOX IMVI melanoma
MCF7 breast = system: MCF7 breast
MDA-MB-435 = system: MDA-MB-435
OVCAR-5 ovarian = system: OVCAR-5 ovarian
DU-145 prostate = system: DU-145 prostate
NCI/ADR-RES ovarian = system: NCI/ADR-RES ovarian
HS 578T breast = system: HS 578T breast
UACC-257 melanoma = system: UACC-257 melanoma
HOP-62 NSCLC = system: HOP-62 NSCLC
PC-3 prostate = system: PC-3 prostate
BT-549 breast = system: BT-549 breast
MDA-N = system: MDA-N

Structure (SMILES): CC[C@@]12N=C(N(C)C)C[C@]1(O)ON=C2C
- TGI (EKVX NSCLC): > 100 µM
- TGI (SK-MEL-5 melanoma): > 100 µM
- TGI (HOP-92 NSCLC): > 100 µM
- TGI (NCI-H522 lung): > 100 µM
- TGI (SF-539 CNS): > 100 µM
- TGI (K-562 leukemia): > 100 µM
- TGI (HT29 colon): > 100 µM
- TGI (NCI-H226 lung): > 100 µM
- TGI (M14 melanoma): > 100 µM
- TGI (MOLT-4 leukemia): > 100 µM
- TGI (RXF 393 renal): > 100 µM
- TGI (HOP-18 NSCLC): > 100 µM
- TGI (COLO 205 colon): > 100 µM
- TGI (LXFL 529 NSCLC): > 100 µM
- TGI (CAKI-1 renal): > 100 µM
- TGI (786-0 renal): > 100 µM
- TGI (SR leukemia): > 100 µM
- TGI (HCT-15 colon): > 100 µM
- TGI (SN12C renal): > 100 µM
- TGI (UO-31 renal): > 100 µM
- TGI (M19-MEL melanoma): > 100 µM
- TGI (SK-MEL-28 melanoma): > 100 µM
- TGI (OVCAR-3 ovarian): > 100 µM
- TGI (NCI-H23 lung): > 100 µM
- TGI (XF 498 CNS): > 100 µM
- TGI (ACHN renal): > 100 µM
- TGI (HCT-116 colon): > 100 µM
- TGI (CCRF-CEM leukemia): > 100 µM
- TGI (OVCAR-8 ovarian): > 100 µM
- TGI (SF-295 CNS): > 100 µM
- TGI (SNB-19 CNS): > 100 µM
- TGI (RPMI-8226 leukemia): > 100 µM
- TGI (IGROV1 ovarian): > 100 µM
- TGI (DMS 114 small cell lung): > 100 µM
- TGI (DMS 273 small cell lung): > 100 µM
- TGI (SK-MEL-2 melanoma): > 100 µM
- TGI (SNB-75 CNS): > 100 µM
- TGI (DLD-1 colon): > 100 µM
- TGI (NCI-H460 lung): > 100 µM
- TGI (TK-10 renal): > 100 µM
- TGI (A549 NSCLC): > 100 µM
- TGI (HCC-2998 colon): > 100 µM
- TGI (SK-OV-3 ovarian): > 100 µM
- TGI (KM12 colon): > 100 µM
- TGI (HL-60(TB) leukemia): > 100 µM
- TGI (OVCAR-4 ovarian): > 100 µM
- TGI (KM20L2 colon): > 100 µM
- TGI (U251 CNS): > 100 µM
- TGI (A498 renal): > 100 µM
- TGI (SW-620 colon): > 100 µM
- TGI (SF-268 CNS): > 100 µM
- TGI (MALME-3M melanoma): > 100 µM

Structure (SMILES): Cc1nc2ccccc2nc1-c1ccc(N=[N+]([O-])c2ccc(-c3nc4ccccc4nc3C)cc2)cc1
- TGI (EKVX NSCLC): > 100 µM
- TGI (MDA-MB-231 breast): > 80.2 µM
- TGI (UACC-62 melanoma): > 100 µM
- TGI (SK-MEL-5 melanoma): > 100 µM
- TGI (HOP-92 NSCLC): > 66.1 µM
- TGI (NCI-H522 lung): > 100 µM
- TGI (SF-539 CNS): > 100 µM
- TGI (K-562 leukemia): > 100 µM
- TGI (HT29 colon): > 100 µM
- TGI (NCI-H226 lung): > 100 µM
- TGI (M14 melanoma): > 100 µM
- TGI (MOLT-4 leukemia): > 100 µM
- TGI (RXF 393 renal): > 95.1 µM
- TGI (T-47D breast): > 100 µM
- TGI (COLO 205 colon): > 100 µM
- TGI (CAKI-1 renal): > 100 µM
- TGI (786-0 renal): > 100 µM
- TGI (LOX IMVI melanoma): > 100 µM
- TGI (SR leukemia): > 100 µM
- TGI (HCT-15 colon): > 100 µM
- TGI (SN12C renal): > 100 µM
- TGI (UO-31 renal): > 100 µM
- TGI (SK-MEL-28 melanoma): > 100 µM
- TGI (MCF7 breast): > 100 µM
- TGI (MDA-MB-435): > 100 µM
- TGI (OVCAR-3 ovarian): > 100 µM
- TGI (OVCAR-5 ovarian): > 100 µM
- TGI (NCI-H23 lung): > 100 µM
- TGI (ACHN renal): > 100 µM
- TGI (HCT-116 colon): > 100 µM
- TGI (CCRF-CEM leukemia): > 100 µM
- TGI (OVCAR-8 ovarian): > 100 µM
- TGI (DU-145 prostate): > 100 µM
- TGI (SF-295 CNS): > 100 µM
- TGI (SNB-19 CNS): > 100 µM
- TGI (RPMI-8226 leukemia): > 100 µM
- TGI (IGROV1 ovarian): > 100 µM
- TGI (NCI/ADR-RES ovarian): > 100 µM
- TGI (SK-MEL-2 melanoma): > 100 µM
- TGI (SNB-75 CNS): 46 µM
- TGI (HS 578T breast): > 95.9 µM
- TGI (UACC-257 melanoma): > 100 µM
- TGI (NCI-H460 lung): > 100 µM
- TGI (TK-10 renal): 50.5 µM
- TGI (A549 NSCLC): > 100 µM
- TGI (HCC-2998 colon): > 100 µM
- TGI (SK-OV-3 ovarian): > 82.5 µM
- TGI (HOP-62 NSCLC): > 81.8 µM
- TGI (KM12 colon): > 100 µM
- TGI (HL-60(TB) leukemia): > 100 µM
- TGI (OVCAR-4 ovarian): > 100 µM
- TGI (PC-3 prostate): > 100 µM
- TGI (BT-549 breast): > 100 µM
- TGI (U251 CNS): > 63.2 µM
- TGI (A498 renal): > 89 µM
- TGI (MDA-N): > 100 µM
- TGI (SW-620 colon): > 100 µM
- TGI (SF-268 CNS): > 100 µM
- TGI (MALME-3M melanoma): > 100 µM

Structure (SMILES): O=[N+]([O-])c1ccc(S(=O)(=O)N=Ic2ccccc2)cc1
- TGI (EKVX NSCLC): > 100 µM
- TGI (MDA-MB-231 breast): > 100 µM
- TGI (UACC-62 melanoma): > 100 µM
- TGI (SK-MEL-5 melanoma): > 100 µM
- TGI (HOP-92 NSCLC): > 100 µM
- TGI (NCI-H522 lung): > 100 µM
- TGI (SF-539 CNS): > 100 µM
- TGI (K-562 leukemia): > 100 µM
- TGI (HT29 colon): > 100 µM
- TGI (NCI-H226 lung): > 100 µM
- TGI (M14 melanoma): > 100 µM
- TGI (MOLT-4 leukemia): > 100 µM
- TGI (RXF 393 renal): > 100 µM
- TGI (T-47D breast): > 100 µM
- TGI (COLO 205 colon): > 100 µM
- TGI (CAKI-1 renal): > 100 µM
- TGI (786-0 renal): > 100 µM
- TGI (LOX IMVI melanoma): > 100 µM
- TGI (SR leukemia): > 100 µM
- TGI (HCT-15 colon): > 100 µM
- TGI (SN12C renal): > 100 µM
- TGI (UO-31 renal): > 100 µM
- TGI (SK-MEL-28 melanoma): > 100 µM
- TGI (MCF7 breast): > 100 µM
- TGI (MDA-MB-435): > 100 µM
- TGI (OVCAR-3 ovarian): > 100 µM
- TGI (OVCAR-5 ovarian): > 100 µM
- TGI (NCI-H23 lung): > 100 µM
- TGI (ACHN renal): > 100 µM
- TGI (HCT-116 colon): > 100 µM
- TGI (CCRF-CEM leukemia): > 100 µM
- TGI (OVCAR-8 ovarian): > 100 µM
- TGI (DU-145 prostate): > 100 µM
- TGI (SF-295 CNS): > 100 µM
- TGI (SNB-19 CNS): > 100 µM
- TGI (RPMI-8226 leukemia): > 100 µM
- TGI (IGROV1 ovarian): > 100 µM
- TGI (NCI/ADR-RES ovarian): > 100 µM
- TGI (SK-MEL-2 melanoma): > 100 µM
- TGI (SNB-75 CNS): > 100 µM
- TGI (HS 578T breast): > 100 µM
- TGI (UACC-257 melanoma): > 100 µM
- TGI (NCI-H460 lung): > 100 µM
- TGI (TK-10 renal): > 100 µM
- TGI (A549 NSCLC): > 100 µM
- TGI (HCC-2998 colon): > 100 µM
- TGI (SK-OV-3 ovarian): > 100 µM
- TGI (HOP-62 NSCLC): > 100 µM
- TGI (KM12 colon): > 100 µM
- TGI (HL-60(TB) leukemia): > 100 µM
- TGI (OVCAR-4 ovarian): > 100 µM
- TGI (PC-3 prostate): > 100 µM
- TGI (BT-549 breast): > 100 µM
- TGI (U251 CNS): > 100 µM
- TGI (A498 renal): > 100 µM
- TGI (MDA-N): > 100 µM
- TGI (SW-620 colon): > 100 µM
- TGI (SF-268 CNS): > 100 µM
- TGI (MALME-3M melanoma): > 100 µM
